Data taken from patent publication US20090124678A1, “Combined Use of Metconazole and Epoxiconazole for Reducing or Preventing the Contamination of Cereals With Mycotoxins” (priority 2005, published 2009).

Tests used:
[1] = system: Fusarium sp.; assay: Fusarium ear infection of winter wheat under field conditions, determined visually; format: in vivo, Fusarium sp. on winter wheat cultivar "Ritmo"; conditions: winter wheat "Ritmo" inoculated with Fusarium sp. at GS 25-29, sprayed at GS 63, assessed three weeks after application, relative to untreated control, metconazole 45 g/ha, epoxyconazole 75 g/ha
Description: (§1) At growth stage GS 25-29 (tillering), outdoor winter wheat of the cultivar “Ritmo” was inoculated with rye grains infected with Fusarium sp. The active compounds were applied at growth stage GS 63 (beginning of flowering). Both metconazole and epoxyconazole were used as finished formulations (metconazole: trade name “Caramba”; epoxyconazole: trade name “Opus”; metconazole as SL=[…]; epoxyconazole as SC=suspensible concentrate). These formulations were diluted with water to the desired concentration, and the plants were treated by spraying with these diluted preparations. The active compounds were applied jointly as a tank mix. For comparison, the individual fungicides were also only employed on their own. Three weeks after application, the infection of the ears with Fusarium fungi was determined visually. The wheat grains were harvested and the DON content of the grains was determined after extraction and analysis by HPLC/MS. For comparative evaluation, the Fusarium infection and the DON value found for untreated wheat were defined as 100%. […] The expected efficacies for active compound combinations were determined using Colby's formula (S. R. Colby, Calculating Synergistic and Antagonistic Responses of Herbicide Combinations, Weeds, 15, pages 20-22, 1967) and compared with the observed efficacies.

[2] = system: deoxynivalenol (DON); assay: DON content of harvested wheat grains after field treatment (extraction, HPLC/MS); format: in vivo, Fusarium sp. on winter wheat cultivar "Ritmo"; conditions: relative to untreated wheat (33.7 mg/kg DON), sprayed at GS 63, metconazole 45 g/ha, epoxyconazole 75 g/ha
Description: as §1

SMILES	Effect on infection [%] [1]	Reduction of DON content [%] [2]
Fc1ccc([C@]2(Cn3cncn3)O[C@H]2c2ccccc2Cl)cc1 (racemic) [epoxyconazole]	5%	0%
CC1(C)CCC(Cc2ccc(Cl)cc2)C1(O)Cn1cncn1 (stereo not shown) [metconazole]	27%	33%
